Assay results: patent publication US20110160399A1, “HISTONE MODIFICATION INHIBITOR SPECIFIC TO TARGET GENE” (NIHON UNIVERSITY, priority 2008, published 2011)

What was measured:
Assay type in all cases: cell-based, human
[1] = test system: p16 gene expression (p16 RNA); assay: Real-time RT-PCR of p16 gene expression in HeLa cells; details: 48 hours, even at 10 nM, GAPDH internal standard, FIG. 6
Method: To verify the effect on p16 gene expression, real-time RT-PCR was performed. HeLa cells seeded at 1.5×10^4 cells per well in 24-well plates were cultured for 48 hours in the presence of various concentrations of the polyamides, and RNA was then collected by ISOGEN (Nippon Gene Co., Ltd., Tokyo, Japan). The procedures used followed the manufacturer's instructions. The isolated total RNA was measured for its concentration with Nanodrop (Nanoprop, USA) and used for cDNA synthesis with a Primescript RT reagent kit (TAKARA BIO, Shiga, Japan). The prepared cDNA was confirmed for the expression level of p16 RNA in a Thermal Cycler Dice Real-time System TP-800 (TAKARA BIO, Shiga, Japan) with SYBR premix EX Tag (TAKARA BIO, Shiga, Japan). In this case, the following primers were used in PCR reaction for p16 amplification.
Likewise, for amplification of human endogenous glyceraldehyde-3-phosphate dehydrogenase (GAPDH) used as an internal standard, the following primers were used in PCR reaction.

p16 protein expression = assay: Western blotting of p16 protein in HeLa cells; details: 48 hours, various concentrations, α-tubulin internal standard, FIG. 7
Method: After being cultured for 48 hours in the presence of various concentrations of polyamide, HeLa cells were harvested and lysed again in an extraction buffer containing 20 mM Tris-HCl (pH 7.5), 150 mM NaCl, 1 mM EDTA, 1% Nonidet P-40 and Complete Protease Inhibitor Cocktail Tablets (Roche), and then centrifuged at 13,500×g at 4° C. for 15 minutes. The resulting supernatants were supplemented with a sample buffer solution (2ME+, ×4) (Wako Pure Chemical Industries, Ltd., Japan) to give samples. These samples were developed on a 15% polyacrylamide gel, electrically transferred to a polyvinylidene difluoride membrane (Millipore Corporation, USA), and then blocked with 5% skimmed milk for the purpose of preventing non-specific binding. The primary antibodies used for target protein detection were purified anti-human p16INK4 monoclonal antibody (BD bioscience) for p16 and α-tubulin (TU-02) (SANTA CRUZ) for α-tubulin used as an internal standard. […] After antibody labeling, the membrane was developed with Immobilon western (MILLIPORE) and then detected by Las-4000 mini (Fuji Photo Film Co., Ltd., Japan). The area and intensity of each band were determined by Multigauge (Fuji Photo Film Co., Ltd., Japan) and quantified in comparison with a 50% DMSO-treated control, which was set to 100%.

[2] = test system: acetylation of histone H3 lysine 9 in the genomic region of the LARP1 gene; assay: Genomic region-specific acetylation analysis (ChIP, anti-histone H3K9 acetyl antibody), LARP1 gene region; details: HeLa cells, 150 nM, 7 days; FIG. 10
Method: In a 10% fetal bovine serum-containing DMEM medium prepared to contain the synthesized compound (SAHA+p16 PIP or SAHA+non-targeting PIP) or SAHA at a final concentration of 150 nM, HeLa cells were cultured at 37° C. in the presence of 5% CO2 for 7 days. After culture, 5×10^6 to 1×10^7 confluent cells were harvested in 100 mm diameter cell culture dishes (Corning 430167) and then subjected to chromatin immunoprecipitation assay with a MILIPORE 17-295 Chromatin Immunoprecipitation (ChIP) assay kit.
The detailed procedures used are as follows. To the harvested cells cultured for 7 days, formalin was added at a final concentration of 1% and incubated at 37° C. for 10 minutes to fix the cells, whereby proteins and DNAs were crosslinked within the cells. Then, glycine was added at a final concentration of 0.25 M and the supernatant was removed, followed by washing the cell layer. Then, the cell layer was treated with 220 μl lysis buffer and the cell lysate was collected with a scraper. […] Real-time RT-PCR.” More specifically, the purified DNA was quantitatively analyzed with SYBR premix EX Taq (TAKARA BIO, Shiga, Japan) in a Thermal Cycler Dice Real-time System TP-800 (TAKARA BIO, Shiga, Japan). […]

CN(C)CCCNC(=O)CCNC(=O)c1cc(NC(=O)c2nc(NC(=O)c3nc(NC(=O)CCNC(=O)c4cc(NC(=O)c5nc(NC(=O)CCCNC(=O)c6cc(NC(=O)c7nc(NC(=O)CCNC(=O)c8cc(NC(=O)c9cc(NC(=O)c%10nc(NC(=O)CCNC(=O)CCNC(=O)c%11ccc(NC(=O)CCCCCCC(=O)NO)cc%11)cn%10C)cn9C)cn8C)cn7C)cn6C)cn5C)cn4C)cn3C)cn2C)cn1C [SAHA+p16 PIP, SAHA-ββImPyPyβImPyγImPyβImImPyβDp]
expression level of p16 at the transcription level [1]: significant increase | expression of p16 at the protein level (p16 protein expression): enhanced the expression | acetylation of histone H3 lysine 9 in the genomic region of the LARP1 gene [2]: enhanced acetylation | enhancement of histone H3 lysine 9 acetylation in the LARP1 genomic region compared to SAHA alone or SAHA+non-targeting PIP [2]: about 2.5 fold
